Tests used:
Test in all cases: Competitive isoTOP-ABPP, cell lysates
Assay type in all cases: binding
[1] = molecular target: T1, CYR61 C134 (O00622) (Homo sapiens, UniProt O00622); details: for isoTOP-ABPP ratio (reactivity profile), O00622_C134: 500 μm in-vitro ramos_231
T1 sequence (O00622 25-381): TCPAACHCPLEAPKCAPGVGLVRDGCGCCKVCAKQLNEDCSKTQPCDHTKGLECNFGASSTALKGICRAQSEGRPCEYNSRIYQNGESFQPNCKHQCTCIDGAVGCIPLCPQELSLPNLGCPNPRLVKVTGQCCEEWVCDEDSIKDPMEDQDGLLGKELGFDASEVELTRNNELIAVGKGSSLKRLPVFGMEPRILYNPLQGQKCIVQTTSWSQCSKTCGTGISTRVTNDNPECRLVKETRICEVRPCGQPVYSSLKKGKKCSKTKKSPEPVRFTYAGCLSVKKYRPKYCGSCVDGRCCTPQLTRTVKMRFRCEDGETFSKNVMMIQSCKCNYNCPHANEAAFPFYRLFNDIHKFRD

[2] = molecular target: T2, KDM3A C251 (Q9Y4C1) (Homo sapiens, UniProt Q9Y4C1); details: for R value (DMSO/fragment): 500 μM
T2 sequence (Q9Y4C1 1-1321): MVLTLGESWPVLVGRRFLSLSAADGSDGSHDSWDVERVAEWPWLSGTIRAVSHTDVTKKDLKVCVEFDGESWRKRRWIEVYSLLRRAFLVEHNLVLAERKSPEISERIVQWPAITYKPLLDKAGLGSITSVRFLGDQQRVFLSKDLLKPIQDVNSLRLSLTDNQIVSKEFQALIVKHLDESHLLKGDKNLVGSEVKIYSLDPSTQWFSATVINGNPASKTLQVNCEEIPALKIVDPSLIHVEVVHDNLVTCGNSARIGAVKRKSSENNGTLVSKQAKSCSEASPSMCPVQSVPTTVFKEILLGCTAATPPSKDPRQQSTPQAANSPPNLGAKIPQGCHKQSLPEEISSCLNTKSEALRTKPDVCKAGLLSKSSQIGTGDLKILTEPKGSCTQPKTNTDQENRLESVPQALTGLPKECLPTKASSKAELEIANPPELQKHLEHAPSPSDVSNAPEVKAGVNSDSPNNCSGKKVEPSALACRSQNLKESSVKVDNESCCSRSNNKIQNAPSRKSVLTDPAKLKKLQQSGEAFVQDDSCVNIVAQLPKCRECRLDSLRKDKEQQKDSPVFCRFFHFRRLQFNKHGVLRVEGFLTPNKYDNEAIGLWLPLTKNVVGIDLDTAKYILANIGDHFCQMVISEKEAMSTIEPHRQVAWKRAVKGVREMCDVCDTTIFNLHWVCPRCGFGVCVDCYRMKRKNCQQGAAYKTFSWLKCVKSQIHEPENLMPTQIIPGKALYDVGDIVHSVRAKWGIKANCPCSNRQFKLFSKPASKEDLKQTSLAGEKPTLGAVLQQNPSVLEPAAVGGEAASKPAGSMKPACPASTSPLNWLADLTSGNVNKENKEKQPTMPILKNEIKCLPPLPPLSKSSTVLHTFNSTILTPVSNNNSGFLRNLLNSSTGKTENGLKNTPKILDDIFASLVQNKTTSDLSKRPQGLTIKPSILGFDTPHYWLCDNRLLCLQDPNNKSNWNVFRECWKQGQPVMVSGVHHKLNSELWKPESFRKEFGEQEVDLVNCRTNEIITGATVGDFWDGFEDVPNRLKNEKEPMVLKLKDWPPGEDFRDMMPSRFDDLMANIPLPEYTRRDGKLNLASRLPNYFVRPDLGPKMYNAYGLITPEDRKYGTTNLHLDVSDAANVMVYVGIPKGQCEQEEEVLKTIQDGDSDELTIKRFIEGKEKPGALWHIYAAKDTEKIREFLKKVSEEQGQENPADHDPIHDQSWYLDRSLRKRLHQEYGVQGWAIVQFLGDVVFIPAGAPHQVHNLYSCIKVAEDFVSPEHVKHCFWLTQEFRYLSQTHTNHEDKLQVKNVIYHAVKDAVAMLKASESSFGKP

[3] = molecular target: USP34 C1090 (Q70CQ2) (Homo sapiens, UniProt Q70CQ2); details: for isoTOP-ABPP ratio (reactivity profile), Q70CQ2_C1090: 500 μm in-vitro ramos
Chain of USP34 C1090 (Q70CQ2) (Q70CQ2 whole entry): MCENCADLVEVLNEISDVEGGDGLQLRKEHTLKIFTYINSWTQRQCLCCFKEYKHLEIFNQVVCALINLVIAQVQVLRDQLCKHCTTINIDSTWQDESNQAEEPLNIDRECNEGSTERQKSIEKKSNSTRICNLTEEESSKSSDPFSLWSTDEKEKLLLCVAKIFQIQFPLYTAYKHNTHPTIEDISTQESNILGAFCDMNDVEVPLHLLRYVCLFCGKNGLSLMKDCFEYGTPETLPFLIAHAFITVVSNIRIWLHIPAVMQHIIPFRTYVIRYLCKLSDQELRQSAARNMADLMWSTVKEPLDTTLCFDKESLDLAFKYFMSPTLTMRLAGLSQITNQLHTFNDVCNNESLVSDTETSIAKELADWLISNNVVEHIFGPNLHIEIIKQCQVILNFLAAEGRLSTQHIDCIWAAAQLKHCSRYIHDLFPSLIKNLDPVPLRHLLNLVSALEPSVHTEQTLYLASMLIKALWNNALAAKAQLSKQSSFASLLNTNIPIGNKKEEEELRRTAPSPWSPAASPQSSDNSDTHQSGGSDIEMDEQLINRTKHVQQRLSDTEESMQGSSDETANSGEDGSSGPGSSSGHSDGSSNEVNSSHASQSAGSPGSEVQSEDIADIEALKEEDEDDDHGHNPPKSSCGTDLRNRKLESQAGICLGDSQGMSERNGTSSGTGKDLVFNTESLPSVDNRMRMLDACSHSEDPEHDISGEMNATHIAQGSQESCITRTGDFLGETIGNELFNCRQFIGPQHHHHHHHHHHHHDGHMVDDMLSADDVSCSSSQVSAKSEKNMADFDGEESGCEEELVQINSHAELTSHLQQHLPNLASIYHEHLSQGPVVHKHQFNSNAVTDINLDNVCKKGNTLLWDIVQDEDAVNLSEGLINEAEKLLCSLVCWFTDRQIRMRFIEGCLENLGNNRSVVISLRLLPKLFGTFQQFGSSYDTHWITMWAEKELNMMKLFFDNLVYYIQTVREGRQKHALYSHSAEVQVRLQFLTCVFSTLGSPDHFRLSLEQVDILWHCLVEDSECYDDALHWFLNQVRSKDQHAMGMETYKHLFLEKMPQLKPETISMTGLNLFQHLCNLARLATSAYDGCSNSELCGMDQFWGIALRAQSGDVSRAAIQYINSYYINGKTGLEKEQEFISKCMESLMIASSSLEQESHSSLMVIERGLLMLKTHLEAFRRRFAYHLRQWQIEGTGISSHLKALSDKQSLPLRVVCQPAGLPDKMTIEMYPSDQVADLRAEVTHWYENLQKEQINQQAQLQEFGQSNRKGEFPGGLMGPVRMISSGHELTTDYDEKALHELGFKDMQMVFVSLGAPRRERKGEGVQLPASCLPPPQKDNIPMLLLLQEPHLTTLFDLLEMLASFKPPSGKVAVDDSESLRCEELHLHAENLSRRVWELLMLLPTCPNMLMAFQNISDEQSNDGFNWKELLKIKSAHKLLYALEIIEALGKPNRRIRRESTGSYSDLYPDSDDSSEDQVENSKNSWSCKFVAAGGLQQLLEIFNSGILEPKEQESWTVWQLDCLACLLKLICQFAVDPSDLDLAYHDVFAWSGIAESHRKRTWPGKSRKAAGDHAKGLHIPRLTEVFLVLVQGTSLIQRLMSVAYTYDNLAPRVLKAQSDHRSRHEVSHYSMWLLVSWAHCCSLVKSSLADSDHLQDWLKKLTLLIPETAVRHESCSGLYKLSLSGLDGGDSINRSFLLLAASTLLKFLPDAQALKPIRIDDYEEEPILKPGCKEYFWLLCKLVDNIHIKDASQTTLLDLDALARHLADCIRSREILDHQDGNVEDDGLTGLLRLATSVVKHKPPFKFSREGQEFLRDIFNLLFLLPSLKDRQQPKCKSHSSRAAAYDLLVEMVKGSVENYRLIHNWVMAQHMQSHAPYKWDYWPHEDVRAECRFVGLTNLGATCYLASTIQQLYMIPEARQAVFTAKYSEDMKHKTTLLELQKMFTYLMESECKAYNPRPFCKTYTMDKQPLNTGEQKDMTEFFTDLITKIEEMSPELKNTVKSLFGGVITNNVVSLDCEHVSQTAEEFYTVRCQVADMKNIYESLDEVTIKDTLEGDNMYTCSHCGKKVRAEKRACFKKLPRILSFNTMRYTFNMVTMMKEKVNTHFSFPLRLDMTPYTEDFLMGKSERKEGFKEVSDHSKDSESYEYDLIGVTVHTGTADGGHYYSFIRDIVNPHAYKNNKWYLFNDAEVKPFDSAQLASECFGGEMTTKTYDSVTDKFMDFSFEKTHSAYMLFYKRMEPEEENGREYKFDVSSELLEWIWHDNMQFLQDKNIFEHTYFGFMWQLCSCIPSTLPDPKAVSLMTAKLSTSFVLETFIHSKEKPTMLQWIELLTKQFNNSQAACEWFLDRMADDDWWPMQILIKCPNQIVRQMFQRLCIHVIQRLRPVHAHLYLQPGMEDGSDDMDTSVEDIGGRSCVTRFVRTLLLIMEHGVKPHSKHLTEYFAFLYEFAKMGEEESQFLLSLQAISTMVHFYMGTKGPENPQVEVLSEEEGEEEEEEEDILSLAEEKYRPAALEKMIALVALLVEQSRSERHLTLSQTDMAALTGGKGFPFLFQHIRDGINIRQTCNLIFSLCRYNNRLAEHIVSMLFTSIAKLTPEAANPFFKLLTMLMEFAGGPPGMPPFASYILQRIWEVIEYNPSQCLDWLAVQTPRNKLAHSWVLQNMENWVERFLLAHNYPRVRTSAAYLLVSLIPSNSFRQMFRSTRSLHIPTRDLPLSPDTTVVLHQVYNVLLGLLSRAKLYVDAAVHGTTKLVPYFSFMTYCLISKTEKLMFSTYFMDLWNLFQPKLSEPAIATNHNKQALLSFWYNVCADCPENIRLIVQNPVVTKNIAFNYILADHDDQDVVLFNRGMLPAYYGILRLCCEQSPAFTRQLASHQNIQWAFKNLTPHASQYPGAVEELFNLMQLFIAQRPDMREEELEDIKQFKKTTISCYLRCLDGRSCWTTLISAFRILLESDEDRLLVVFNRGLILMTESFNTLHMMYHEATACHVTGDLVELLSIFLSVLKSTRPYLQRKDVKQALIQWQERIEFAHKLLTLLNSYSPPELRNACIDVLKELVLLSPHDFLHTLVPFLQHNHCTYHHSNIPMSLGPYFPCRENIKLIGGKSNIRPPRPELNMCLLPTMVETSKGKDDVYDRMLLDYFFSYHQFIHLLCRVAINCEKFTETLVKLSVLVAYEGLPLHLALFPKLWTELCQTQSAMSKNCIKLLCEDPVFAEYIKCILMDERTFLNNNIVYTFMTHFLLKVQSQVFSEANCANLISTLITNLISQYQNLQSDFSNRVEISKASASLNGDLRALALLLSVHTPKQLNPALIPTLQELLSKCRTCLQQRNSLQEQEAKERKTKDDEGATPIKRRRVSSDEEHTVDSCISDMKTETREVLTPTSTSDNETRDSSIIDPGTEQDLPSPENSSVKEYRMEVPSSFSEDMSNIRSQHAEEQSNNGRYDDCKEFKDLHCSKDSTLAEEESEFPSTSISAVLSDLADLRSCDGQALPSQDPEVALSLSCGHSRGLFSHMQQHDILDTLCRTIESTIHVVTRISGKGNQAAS

SMILES: O=C(CCl)Nc1cc(C(F)(F)F)cc(C(F)(F)F)c1 [compound 3]
- R value (DMSO/fragment) ([1]; 500 μM, in vitro, MDA-MB-231): 20.0
- R value (DMSO/fragment) ([2]; in vitro, MDA-MB-231): 4.4
- R value (DMSO/fragment) ([2]; invitro, ramos): 4.0
- R value (DMSO/fragment) ([3]; 500 μM, invitro, ramos): 19.7

SMILES: C=CC(=O)N(c1ccccc1)c1ccc(Br)cc1 [compound 5]
- isoTOP-ABPP ratio, Q70CQ2_C1090 ([3]; 500 μM, invitro, ramos): 20.0

SMILES: O=C(CCl)N1CCN(S(=O)(=O)c2ccccc2F)CC1 [compound 10]
- isoTOP-ABPP ratio, O00622_C134 ([1]; 500 μM, invitro, 231): 20.0

SMILES: O=C(CCl)N1CCC(C(O)(c2ccccc2)c2ccccc2)CC1 [compound 20]
- isoTOP-ABPP ratio (reactivity profile), O00622_C134 [1]: 20.0
- isoTOP-ABPP ratio (reactivity profile), Q70CQ2_C1090 [3]: 2.7

SMILES: O=C(CCl)NC12CC3CC(CC(C3)C1)C2 [compound 21]
- isoTOP-ABPP ratio (reactivity profile), Q9Y4C1_C251 ([2]; 500 μm in-vitro ramos_231): 0.7
- isoTOP-ABPP ratio (reactivity profile), Q70CQ2_C1090 [3]: 0.9

SMILES: CC(Br)C(=O)Nc1cc(C(F)(F)F)cc(C(F)(F)F)c1 (centres unmarked) [compound 24]
- isoTOP-ABPP ratio (reactivity profile), Q9Y4C1_C251 ([2]; 500 μm in-vitro ramos): 1.3

SMILES: CC(Cl)C(=O)Nc1cc(C(F)(F)F)cc(C(F)(F)F)c1 (centres unmarked) [compound 25]
- isoTOP-ABPP ratio (reactivity profile), O00622_C134 [1]: 1.0

SMILES: CC(C)CCOCCNC(=O)CCl [compound 27]
- isoTOP-ABPP ratio (reactivity profile), O00622_C134 [1]: 1.5

SMILES: C=CC(=O)N(c1ccccc1)C1CCCCC1 [compound 46]
- isoTOP-ABPP reactivity profile ratio, Q9Y4C1_C251 ([2]; 500 μm, in-vitro_ramos_231): 1.0

Source: patent US10670605B2, “Cysteine reactive probes and uses thereof” (The Scripps Research Institute, priority 2015, dated 2020)
